A short description of the series: Reconstitution of Orbactiv 400 mg vial with aqueous HPCD: time to dissolve, pH and visual observation on storage. Type of series: physicochemical. Particulars: for visible precipitation: over 24 hours; for time to go into solution (clear, colorless solution): 57.14 mg/mL; for pH: oritavancin 50 mg/mL. How it is done: Reconstituting Orbactiv 400 mg (Oritavancin) with 50% HPCD. 5.915 g of HPCD was dissolved in 11.83 mL of water to make a 50 wt % aqueous solution. 8 mL of the 50% HPCD solution was added to a 400 mg vial of Orbactiv for a target oritavancin concentration of 50 mg/mL. […] The pH was measured and the solution was stored at room temperature, protected from light, and observed over 24 hours for signs of precipitation (Table 1).
Reconstituting Orbactiv 400 mg (Oritavancin) in 20% w/v HPCD aqueous solution. 3.095 g HPCD was dissolved in 15.474 mL water to make a 20% w/v solution (pH=6.05). 8 mL of the 20% w/v HPCD solution was added to a 400 mg vial of Orbactiv for a target oritavancin concentration of 50 mg/mL. […] The pH was measured and the solution was stored at room temperature, protected from light, and observed over 24 hours for signs of precipitation (Table 3).
Reconstituting Orbactiv 400 mg (Oritavancin) in 50% w/v HPCD aqueous solution, adjusting pH then diluting in saline. 6.269 g of HPCD was dissolved in 12.538 mL of water to make a 50% w/v solution (pH=7.23). Seven (7) mL of the 50% w/v solution was added to a 400 mg vial of Orbactiv for a target oritavancin concentration of 57.14 mg/mL. […] A 2 mL aliquot of 57.14 mg/mL was removed from the vial and placed in a small glass vial. The pH was adjusted to 6.5 using 1N NaOH. NaOH was added to the oritavancin solution in 5 μL increments and vortexed. Visual observations and pH were recorded (Table 6).
Reconstituting Orbactiv 400 mg (Oritavancin) in 50% w/v aqueous HPCD, adjusting pH then diluting in saline. 6.112 g of HPCD was dissolved in 12.224 mL of water to make a 50% w/v solution (pH=6.74). Seven (7) mL of the 50% w/v HPCD solution was added to a 400 mg vial of Orbactiv for a target oritavancin concentration of 57.14 mg/mL. […] A 3 mL aliquot of 57.14 mg/mL was removed from the vial and placed in a small glass vial. The pH was adjusted to 7 using 1N NaOH. NaOH was added to the oritavancin solution in 5 μL increments and vortexed. Visual observations and pH were recorded (Table 8).
Reconstituting Orbactiv 400 mg (Oritavancin) in 20% w/v aqueous HPCD, adjusting pH then diluting in saline. 3.555 g of HPCD was dissolved in 17.775 mL of water to make a 20% w/v solution (pH=6.88). Seven (7) mL of the 20% w/v HPCD solution was added to a 400 mg vial of Orbactiv for a target oritavancin concentration of 57.14 mg/mL. […] A 3 mL aliquot of 57.14 mg/mL was removed from the vial and placed in a small glass vial. The pH was adjusted to 7 using 1N NaOH. NaOH was added to the oritavancin solution in 5 μL increments and vortexed. Visual observations and pH were recorded. (Table 10).
Reconstituting Orbactiv 400 mg (Oritavancin) in 20% w/v aqueous HPCD then diluting in Hank's Balanced Salt Solution (HBSS). 2.641 g of HPCD was dissolved in 13.205 mL of water to make a 20% w/v solution (pH=6.70). Eight (8) mL of the 20% w/v solution was added to a 400 mg vial of Orbactiv for a target oritavancin concentration of 50 mg/mL. […] A 1.5 mL aliquot of 50 mg/mL was removed from the vial and placed in a small glass vial and pH measured. Diluted 2 mL of 50 mg/mL oritavancin solution in 8 mL of HBSS. Visual observations and pH were recorded. (Table 12).

Molecules are shown by their SMILES.

Regarding `CN[C@H](CC(C)C)C(=O)N[C@H]1C(=O)N[C@@H](CC(N)=O)C(=O)N[C@H]2C(=O)N[C@H]3C(=O)N[C@H](C(=O)N[C@H](C(=O)O)c4cc(O)cc(O)c4-c4cc3ccc4O)[C@H](O[C@H]3C[C@](C)(N)[C@@H](O)[C@H](C)O3)c3ccc(c(Cl)c3)Oc3cc2cc(c3O[C@@H]2O[C@H](CO)[C@@H](O)[C@H](O)[C@H]2O[C@H]2C[C@](C)(NCc3ccc(-c4ccc(Cl)cc4)cc3)[C@@H](O)[C@H](C)O2)Oc2ccc(cc2Cl)[C@H]1O` [Oritavancin], the visible precipitation entry is “did not show any sign of visible precipitation” (50 mg/mL in 20% w/v HPCD solution) and “did not show any sign of visible precipitation” (50 mg/mL in 50% HPCD aqueous solution). In addition, the “time to go into solution (clear, colorless solution)” value is, setting by setting: (400 mg vial + 7 mL 20% w/v HPCD solution) at most 5 min; (400 mg vial + 7 mL 20% w/v HPCD solution, listed as Orbactiv) 5 min; (400 mg vial + 7 mL 50% w/v HPCD solution) at most 5 min; (400 mg vial + 7 mL 50% w/v HPCD solution, listed as Orbactiv) 5 min. For the same compound, the pH by setting is: (reconstituted with 20% w/v aqueous HPCD, RT, 0 hr) 3.85; (reconstituted with 20% w/v aqueous HPCD, RT, 24 hr) 4.17; (reconstituted with 50% w/v HPCD in water, 0 hr) 3.94.

Values taken from patent US20170239323A1, “ORITAVANCIN FORMULATIONS” (The Medicines Company, priority 2016, published 2017).
